# Measured values taken from paper PMC6058673, “Comparison of hyaluronic acid-based micelles and polyethylene glycol-based micelles on reversal of multidrug resistance and enhanced anticancer efficacy in vitro and in vivo” (Drug Delivery, 2018).
# “And” between values parts separate entries of the source, which are not always exact repeats. Equal values may be shown once.
# Assays:
# 4T1 tumor-bearing mice [1] = assay: In vivo antitumor efficacy, body weight and survival; parameters: species or system BALB/c mice; conditions: 4T1-bearing mice, i.v. 10 mg/kg DOX
# Description: The antitumor efficacy and safety in vivo were evaluated using 4T1 tumor-bearing mice. Briefly, 1 × 10^6 4T1 cells were subcutaneously injected into the right axilla of the female BALB/c mice. […] Body weights and tumor volumes (V = ab^2/2, where a was major axis and b was minor axis measured by slide caliper) were measured every two days after administration. At the end of the experiment, mice were sacrificed, and then the tumors were excised, weighted and photographed.
# 4T1-bearing Balb/C mice = assay: In vivo biodistribution in tumor-bearing mice; conditions: 4T1-bearing mice, 2 h after i.v. 10 mg DOX/kg and 10 mg Cur/kg
# Description: After 2 h administration, the mice were sacrificed, and the tumor, heart, liver, lung, and kidney were excised, weighed, homogenized in 0.5 mL methanol, centrifuged and analyzed by LC-MS/MS. Meanwhile, for qualitative analysis, the tumors were frozen in cryoembedding media (OCT) and sectioned at 20 μm. The sections were fixed with 4% paraformaldehyde for 10 min, stained for nuclei with DAPI, and observed by CLSM.
# 4T1 tumor-bearing mice [2] = assay: Serum CK, CKMB, LDH and AST (organ toxicity) by ELISA kit; type: in vivo, BALB/c mice; conditions: 4T1-bearing mice, end of experiment; DOX-Sol vs saline, others vs DOX-Sol
# Description: The toxicity of DOX formulations in vivo were evaluated by enzyme-linked immunosorbent assay (ELISA) kit. At the end of the experiment, the blood of each mouse was extracted by eyeballs and the serum was separated. Then, the activities of creatine kinase (CK), creatine kinase MB (CKMB), lactate dehydrogenase (LDH) and aspartate transaminase (AST) in serum were evaluated to investigate the organ toxicity.
# MCF-7/Adr cells = assay: MTT cytotoxicity assay and MDR reversal in multidrug-resistant MCF-7/Adr cells; type: cell-based; conditions: for resistant index (RI): MCF-7/Adr vs MCF-7; for IC50: Homo sapiens, NCI/ADR-RES, MCF-7/Adr, DOX concentration
# Description: The sensitive MCF-7 and multidrug-resistant MCF-7/Adr cells were obtained from Nanjing Kaiji Biotech. Ltd. Co. (Jiangsu, China). Cells were cultured in RPMI-1640 medium containing 10% (v/v) FBS and 1% penicillin–streptomycin at 37 °C with 5% CO2. Additionally, MCF-7/Adr cells were incubated in medium with 1 μg/mL DOX.
# The cytotoxicity of various formulations against MCF-7 and MCF-7/Adr cells was assessed by MTT assay. Briefly, MCF-7 and MCF-7/Adr cells were seeded in 96-well plates at a density of 5 × 10^4 cells/well/0.1 mL 1640 culture medium and cultured for 24 h. Then, the cells were treated with DOX-Sol, DOX + Cur, HA-PMs, TPGS2k-PMs and HA/TPGS2k-PMs with multiple concentrations of DOX for 48 and 72 h, respectively. The cells incubated with medium only were utilized as control. At time interval, 20 μL MTT (5 mg/mL) was added and incubated for another 4 h. After that, the medium of each well was discarded and added 200 μL DMSO. The absorbance of each well was measured at 570 nm using a microplate reader. Half-maximal inhibitory concentration (IC50), the resistant index (RI) and reversal factor (RF) were calculated and used to evaluate MDR reversal effects by micelles(Ling et al., [2010]; Wang et al., [2012]).
# [3] = In vivo pharmacokinetics after intravenous injection; conditions: rat, i.v., DOX 5 mg/kg and Cur 5 mg/kg, analyte DOX
# Description: Male Sprague–Dawley rats were randomly assigned to five groups (five rats per group). DOX-Sol, DOX + Cur, TPGS2k-PMs, HA-PMs and HA/TPGS2k-PMs were injected intravenously with at the dose of 5 mg/kg DOX and 5 mg/kg Cur, respectively. About 300 μL of blood samples were collected from the orbital venous plexus and immediately centrifuged to obtain the plasma fraction. Plasma samples were extracted through methanol protein precipitation method before analyzed by LC–MS/MS system.
compound,measurement,setting,value
"COc1cccc2c1C(=O)c1c(O)c3c(c(O)c1C2=O)C[C@@](O)(C(=O)CO)C[C@@H]3O[C@H]1C[C@H](N)[C@H](O)[C@H](C)O1 [DOX-Sol, Doxorubicin]",death of mice during treatment,4T1 tumor-bearing mice [1]; 10 mice per group,five mice suddenly died after nine days treatment
same,body weight change,4T1 tumor-bearing mice [1],markedly decreased
same,DOX accumulation in tumor,4T1-bearing Balb/C mice,low DOX accumulation
same,"values of CKMB, CK, LDH and AST in serum",4T1 tumor-bearing mice [2],significantly higher than those in saline-treated groups
same,resistant index (RI),"MCF-7/Adr cells; 48h, listed as DOX",142 and 142.01
same,resistant index (RI),MCF-7/Adr cells; 72h,89.82
same,IC50,MCF-7/Adr cells; 48h,106 µg/mL
same,IC50,MCF-7/Adr cells; 72h,45.8 µg/mL
same,V of DOX,[3],0.03 ± 0.02 L/kg
